Measured values as given in article PMC10025480 (Frontiers in Pharmacology, 2023).

Experiments:
[1] = test system: human vascular smooth muscle preparations; conditions: ref Papp et al., 2019; Danahay et al., 2020b; cited from earlier work
delta opioid = delta opioid (Homo sapiens, UniProt P41143); test: SelectScreen cell-based GPCR assay, delta opioid; conditions: 10 µM
Excerpt: (§1) Profiling of compound activity versus a select panel of diverse GPCRs was undertaken by ThermoFisher Scientific (United Kingdom) via their SelectScreen cell-based GPCR assay panel. Detailed experimental protocols on this assay platform can be found at (https://www.thermofisher.com/content/dam/LifeTech/migration/en/filelibrary/services/discovery-research/pdfs.par.36410.file.dat/sscg-brochure.pdf). Briefly these assays detect agonist or antagonist activity using cell lines with the GPCR of interest over-expressed, driving the expression of a reporter gene encompassing a mammalian-optimized Beta-lactamase. Test compounds are incubated with the specific cell lines at the defined final concentration for 5 or 16 h (depending on the cell line specifics) before quantification of effect.

5-HT2B = 5-HT2B (Homo sapiens, UniProt P41595); test: SelectScreen cell-based GPCR assay, 5-HT2B; conditions: 10 µM
Excerpt: as §1

[2] = test system: human bronchial smooth muscle; conditions: cited from earlier work
[3] = cited from earlier work

Chain of 5-HT2B (P41595 whole entry): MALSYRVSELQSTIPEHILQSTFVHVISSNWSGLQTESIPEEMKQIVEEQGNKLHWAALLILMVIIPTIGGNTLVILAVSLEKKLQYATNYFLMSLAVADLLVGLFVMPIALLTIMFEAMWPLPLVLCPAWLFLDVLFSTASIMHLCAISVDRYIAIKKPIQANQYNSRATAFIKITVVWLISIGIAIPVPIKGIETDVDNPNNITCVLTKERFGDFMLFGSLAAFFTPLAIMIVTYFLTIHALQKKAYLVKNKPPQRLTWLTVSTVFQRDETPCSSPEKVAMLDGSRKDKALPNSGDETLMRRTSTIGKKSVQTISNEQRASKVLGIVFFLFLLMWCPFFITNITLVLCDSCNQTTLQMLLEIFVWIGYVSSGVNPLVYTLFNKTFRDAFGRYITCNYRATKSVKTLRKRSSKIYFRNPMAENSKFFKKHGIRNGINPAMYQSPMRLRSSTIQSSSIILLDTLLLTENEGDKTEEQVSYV
Chain of delta opioid (P41143 whole entry): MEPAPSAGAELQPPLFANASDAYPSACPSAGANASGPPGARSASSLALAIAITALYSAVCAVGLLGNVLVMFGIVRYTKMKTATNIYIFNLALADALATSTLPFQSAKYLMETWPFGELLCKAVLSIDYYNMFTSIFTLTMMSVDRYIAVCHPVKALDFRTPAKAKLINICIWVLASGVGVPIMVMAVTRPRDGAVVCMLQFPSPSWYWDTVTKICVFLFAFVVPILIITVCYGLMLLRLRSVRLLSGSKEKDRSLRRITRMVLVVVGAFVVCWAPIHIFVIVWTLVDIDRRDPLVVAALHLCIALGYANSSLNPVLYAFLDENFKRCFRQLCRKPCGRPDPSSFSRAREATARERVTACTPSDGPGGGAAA

## CCc1c(C)nc(SCC(=O)Nc2nc(-c3ccc(OC)cc3)cs2)[nH]c1=O [T16Ainh-A01]
[1]
  activity in human vascular smooth muscle preparations: failed to show activity

## COc1ccccc1/C=N/NC(=O)COc1ccc(Cl)cc1C [Ani9]
Delta opioid
  inhibition of delta opioid: ≥ 50%
5-HT2B
  inhibition of 5-HT2B: ≥ 50%

## ETX001
[2]
  effect on freshly isolated human bronchial smooth muscle tone: no effect
[3]
  effect on lung function in vivo: no effect
